Measurements published in patent US12643886B2 (Ontario Institute for Cancer Research (OICR), priority 2021, dated 2026).

Key:
Format in all cases: biochemical
NUAK2 (h) = target: T1, NUAK2 (h) (Homo sapiens, UniProt Q9H093); assay: NUAK2 enzymatic assay (radiometric, Eurofins); conditions: full-length recombinant enzyme
T1 construct: This assay was done radiometrically using full-length, recombinant enzyme; purchased Eurofins
T1 sequence (Q9H093 1-628): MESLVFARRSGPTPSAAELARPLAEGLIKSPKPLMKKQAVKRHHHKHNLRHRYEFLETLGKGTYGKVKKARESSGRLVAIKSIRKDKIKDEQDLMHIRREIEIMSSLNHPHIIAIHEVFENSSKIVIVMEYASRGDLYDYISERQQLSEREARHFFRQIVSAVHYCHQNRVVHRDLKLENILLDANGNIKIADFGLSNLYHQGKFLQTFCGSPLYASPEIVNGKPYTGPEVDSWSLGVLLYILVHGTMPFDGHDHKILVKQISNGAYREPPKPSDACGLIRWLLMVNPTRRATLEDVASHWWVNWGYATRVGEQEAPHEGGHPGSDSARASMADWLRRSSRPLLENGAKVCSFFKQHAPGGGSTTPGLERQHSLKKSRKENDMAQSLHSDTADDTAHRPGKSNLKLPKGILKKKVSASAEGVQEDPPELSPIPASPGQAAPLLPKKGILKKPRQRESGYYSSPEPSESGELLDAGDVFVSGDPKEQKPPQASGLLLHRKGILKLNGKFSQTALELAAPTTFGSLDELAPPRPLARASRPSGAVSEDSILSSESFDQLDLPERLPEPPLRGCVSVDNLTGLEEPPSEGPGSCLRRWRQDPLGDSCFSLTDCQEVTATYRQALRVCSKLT
Procedure: (§1) To identify small molecule NUAK inhibitors, a biochemical NUAK2 enzymatic assay were outsourced to Eurofins. This assay was done radiometrically using full-length, recombinant enzyme. NUAK2 (h) was incubated with 8 mM MOPS pH 7.0, 0.2 mM EDTA, 300 μM […], 10 mM magnesium acetate and […] (specific activity and concentration as required). The reaction was initiated by the addition of the Mg/ATP mix. After incubation for 40 minutes at room temperature, the reaction was stopped by the addition of phosphoric acid to a concentration of 0.5%. 10 μL of the reaction was then spotted onto a P30 filtermat and washed four times for 4 minutes in 0.425% phosphoric acid and once in methanol prior to drying and scintillation counting. Compounds were routinely counter-screened against Aurora A and NUAK1. The results are shown in Table 1 where IC50's are reported in the following ranges: A: 0.1-10 nM; B: 11-100 nM; C: 101-1000 nM; D: >1000 nM for the compounds of Formula (I)

Aurora A = target: T2, Aurora A (Homo sapiens, UniProt O14965); assay: Counter-screen against Aurora A; conditions: read-out: AUR-A (IC50)
T2 sequence (O14965 1-403): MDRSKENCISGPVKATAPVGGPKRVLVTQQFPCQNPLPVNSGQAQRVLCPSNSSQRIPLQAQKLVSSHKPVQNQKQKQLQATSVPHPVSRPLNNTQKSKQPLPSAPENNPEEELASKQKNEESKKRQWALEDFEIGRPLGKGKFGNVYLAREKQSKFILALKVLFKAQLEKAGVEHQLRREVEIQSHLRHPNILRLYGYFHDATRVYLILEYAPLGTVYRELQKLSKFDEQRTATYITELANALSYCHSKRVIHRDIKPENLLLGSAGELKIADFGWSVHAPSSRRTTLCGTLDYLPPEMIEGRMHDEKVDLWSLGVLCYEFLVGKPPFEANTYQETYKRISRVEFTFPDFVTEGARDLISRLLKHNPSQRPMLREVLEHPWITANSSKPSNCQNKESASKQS
Procedure: as §1

NUAK1 = target: T3, NUAK1 (Homo sapiens, UniProt O60285); assay: Counter-screen against NUAK1
T3 sequence (O60285 1-661): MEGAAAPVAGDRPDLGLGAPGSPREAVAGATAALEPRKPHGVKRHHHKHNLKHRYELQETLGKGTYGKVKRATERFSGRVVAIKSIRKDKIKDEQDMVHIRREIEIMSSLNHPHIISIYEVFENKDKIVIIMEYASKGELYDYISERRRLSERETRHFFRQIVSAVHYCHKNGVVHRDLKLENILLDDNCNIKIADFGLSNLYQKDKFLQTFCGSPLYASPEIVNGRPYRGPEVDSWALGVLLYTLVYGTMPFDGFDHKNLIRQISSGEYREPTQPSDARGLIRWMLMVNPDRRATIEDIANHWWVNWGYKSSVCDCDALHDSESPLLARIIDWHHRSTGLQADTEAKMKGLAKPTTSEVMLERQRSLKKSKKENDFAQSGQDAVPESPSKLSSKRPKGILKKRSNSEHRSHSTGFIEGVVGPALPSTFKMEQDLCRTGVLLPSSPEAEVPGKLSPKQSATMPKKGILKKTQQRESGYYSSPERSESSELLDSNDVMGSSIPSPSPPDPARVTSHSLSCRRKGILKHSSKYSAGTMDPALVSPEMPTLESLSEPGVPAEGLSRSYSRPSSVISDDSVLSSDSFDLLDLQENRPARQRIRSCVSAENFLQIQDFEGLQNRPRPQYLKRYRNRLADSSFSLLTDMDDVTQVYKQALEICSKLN
Procedure: as §1

SMILES	IC50 (NUAK2 (h)) [nM]	IC50 (Aurora A) [nM]	IC50 (NUAK1) [nM]
CC(C)(C)N1CCN(C2CCN(c3ccc(Nc4ncc(C(F)(F)F)c(Nc5cccc6c5C(=O)NC6)n4)c(OC(F)F)c3)CC2)CC1 [Compound I-31, 7-((2-((4-(4-(4-(tert-butyl)piperazin-1-yl)piperidin-1-yl)-2-(difluoromethoxy)phenyl)amino)-5-(trifluoromethyl)pyrimidin-4-yl)amino)isoindolin-1-one]	0.1 to 10	101 to 1000	11 to 100
CC(C)N1CCN(C2CCN(c3ccc(Nc4ncc(C(F)(F)F)c(Nc5cccc6c5C(=O)NC6)n4)c(OC(F)F)c3)CC2)CC1 [Compound I-32, 7-((2-((2-(difluoromethoxy)-4-(4-(4-isopropylpiperazin-1-yl)piperidin-1-yl)phenyl)amino)-5-(trifluoromethyl)pyrimidin-4-yl)amino)isoindolin-1-one]	11 to 100	101 to 1000	11 to 100
O=C1NCc2cccc(Nc3nc(Nc4ccc(N5CCC(N6CCNCC6)CC5)cc4OC(F)F)ncc3C(F)(F)F)c21 [Compound I-40, 7-((2-((2-(difluoromethoxy)-4-(4-(piperazin-1-yl)piperidin-1-yl)phenyl)amino)-5-(trifluoromethyl)pyrimidin-4-yl)amino)isoindolin-1-one]	0.1 to 10	101 to 1000	11 to 100
O=C1NCc2cccc(Nc3nc(Nc4ccc(N5CCNCC5)cc4OC(F)F)ncc3F)c21 [Compound I-42, 7-((2-((2-(difluoromethoxy)-4-(piperazin-1-yl)phenyl)amino)-5-fluoropyrimidin-4-yl)amino)isoindolin-1-one]	11 to 100	101 to 1000	101 to 1000
COc1cc2c(cc1Nc1ncc(F)c(Nc3cccc4c3C(=O)NC4)n1)CCNC2 [Compound I-43, 7-((5-fluoro-2-((7-methoxy-1,2,3,4-tetrahydroisoquinolin-6-yl)amino)pyrimidin-4-yl)amino)isoindolin-1-one]	11 to 100	101 to 1000	101 to 1000
COc1cc2c(cc1Nc1ncc(C(F)(F)F)c(Nc3cccc4c3C(=O)NC4)n1)CNCC21CC1 [Compound I-46, 7-((2-((6′-methoxy-2′,3′-dihydro-1′H-spiro[cyclopropane-1,4′-isoquinolin]-7′-yl)amino)-5-(trifluoromethyl)pyrimidin-4-yl)amino)isoindolin-1-one]	0.1 to 10	> 1000	11 to 100
COc1cc2c(cc1Nc1ncc(OC)c(Nc3cccc4c3C(=O)NC4)n1)CCNC2 [Compound I-47, 7-((5-methoxy-2-((7-methoxy-1,2,3,4-tetrahydroisoquinolin-6-yl)amino)pyrimidin-4-yl)amino)isoindolin-1-one]	11 to 100	> 1000	101 to 1000

Next, values leading:

IC50 (NUAK2 (h)) [nM]	IC50 (Aurora A) [nM]	IC50 (NUAK1) [nM]	SMILES
11 to 100	101 to 1000	11 to 100	COc1c(Nc2ncc(Cl)c(Nc3cccc4c3C(=O)NC4)n2)ccc(N2C[C@H]3CN(C)C[C@H]3C2)c1F [Compound I-29, 7-((5-chloro-2-((3-fluoro-2-methoxy-4-((3aR,6aS)-5-methylhexahydropyrrolo[3,4-c]pyrrol-2(1H)-yl)phenyl)amino)pyrimidin-4-yl)amino)isoindolin-1-one]
0.1 to 10	101 to 1000	0.1 to 10	COc1cc2c(cc1Nc1ncc(C(F)(F)F)c(Nc3cccc4c3C(=O)NC4)n1)CNCC2 [Compound I-30, 7-((2-((6-methoxy-1,2,3,4-tetrahydroisoquinolin-7-yl)amino)-5-(trifluoromethyl)pyrimidin-4-yl)amino)isoindolin-1-one]
11 to 100	101 to 1000	11 to 100	COc1c(Nc2ncc(C(F)(F)F)c(Nc3cccc4c3C(=O)NC4)n2)ccc(N2C[C@H]3CN(C)C[C@H]3C2)c1F [Compound I-35, 7-((2-((3-fluoro-2-methoxy-4-((3aR,6aS)-5-methylhexahydropyrrolo[3,4-c]pyrrol-2(1H)-yl)phenyl)amino)-5-(trifluoromethyl)pyrimidin-4-yl)amino)isoindolin-1-one]
11 to 100	11 to 100	0.1 to 10	CN1CCN(c2ccc(Nc3ncc(C(F)(F)F)c(Nc4cccc5c4C(=O)NC5)n3)c(Cl)c2F)CC1 [Compound I-36, 7-((2-((2-chloro-3-fluoro-4-(4-methylpiperazin-1-yl)phenyl)amino)-5-(trifluoromethyl)pyrimidin-4-yl)amino)isoindolin-1-one]
0.1 to 10	11 to 100	11 to 100	COc1c(Nc2ncc(C(F)(F)F)c(Nc3cccc4c3C(=O)NC4)n2)ccc(N2CCC(N3CCCC3)CC2)c1F [Compound I-37, 7-((2-((3-fluoro-2-methoxy-4-(4-(pyrrolidin-1-yl)piperidin-1-yl)phenyl)amino)-5-(trifluoromethyl)pyrimidin-4-yl)amino)isoindolin-1-one]
0.1 to 10	101 to 1000	11 to 100	COc1c(Nc2ncc(C(F)(F)F)c(Nc3cccc4c3C(=O)NC4)n2)ccc(N2CCCN(C)CC2)c1F [Compound I-38, 7-((2-((3-fluoro-2-methoxy-4-(4-methyl-1,4-diazepan-1-yl)phenyl)amino)-5-(trifluoromethyl)pyrimidin-4-yl)amino)isoindolin-1-one]
11 to 100	11 to 100	11 to 100	COc1c(Nc2ncc(C(F)(F)F)c(Nc3cccc4c3C(=O)NC4)n2)ccc(N2CCC(N3CCNCC3)CC2)c1F [Compound I-39, 7-((2-((3-fluoro-2-methoxy-4-(4-(piperazin-1-yl)piperidin-1-yl)phenyl)amino)-5-(trifluoromethyl)pyrimidin-4-yl)amino)isoindolin-1-one]
11 to 100	101 to 1000	101 to 1000	CN1CCN(c2ccc(Nc3ncc(Cl)c(Nc4cccc5c4C(=O)NC5)n3)c(OC(F)(F)F)c2)CC1 [Compound I-41, 7-((5-chloro-2-((4-(4-methylpiperazin-1-yl)-2-(trifluoromethoxy)phenyl)amino)pyrimidin-4-yl)amino)isoindolin-1-one]
0.1 to 10	101 to 1000	101 to 1000	COc1cc2c(cc1Nc1ncc(C(F)(F)F)c(Nc3cccc4c3C(=O)NC4)n1)CCNCC2 [Compound I-44, 7-((2-((8-methoxy-2,3,4,5-tetrahydro-1H-benzo[d]azepin-7-yl)amino)-5-(trifluoromethyl)pyrimidin-4-yl)amino)isoindolin-1-one]
11 to 100	11 to 100	11 to 100	COc1c(Nc2ncc(C(F)(F)F)c(Nc3cccc4c3C(=O)NC4)n2)ccc(N2CCC(N3CCN(C)CC3)CC2)c1F [Compound I-45, 7-((2-((3-fluoro-2-methoxy-4-(4-(4-methylpiperazin-1-yl)piperidin-1-yl)phenyl)amino)-5-(trifluoromethyl)pyrimidin-4-yl)amino)isoindolin-1-one]
